The record followed here is patent US5360809A, “Imidazole compounds and their use as calcium channel blockers” (NeuroSearch A/S, priority 1992, dated 1994).

Each structure is given as a SMILES string.

For the experiment, the system named is voltage operated calcium channels (P- and L-type), rat synaptosomes. Briefly: 45Ca influx into rat synaptosomes under depolarized conditions. To be noted: depolarization induced 45Ca uptake, rat cortex synaptosomes. The class given is biochemical, rat (male Wistar). From the text:
A high influx of calcium from extracelluar compartments into neurons is seen after opening of voltage operated calcium channels. Such opening of calcium channels may be induced by depolarization of neuronal membranes. A crude synaptosome preparation contains small vesicles surrounded by neuronal membranes, and it is possible to study an opening of the voltage operated calcium channels in such a preparation. In the below described test influx of ^45 Ca into rat synaptosomes is studied under depolarized conditions. The effect of test substances on the depolarization induced calcium uptake can thus be studied.
The compounds of the present invention which potently block the calcium influx of up to 20 to 40% in this test are believed to be blockers of predominantly the P-type of calcium channels and the compounds of the present invention, which at somewhat higher concentrations block the calcium influx more completely or totally, are believed to be both P- and L-type calcium channel blockers, or predominantly L-type of calcium channel blockers.
The cerebral cortex from a male Wistar rat is homogenized in 20 ml ice cold 0.32M saccharose. In the following steps the temperature is kept at 0° C. to 4° C. The homogenate is centrifuged at 1,000×g for 10 minutes and the supernatant recentrifuged for 20 minutes at 18,000×g. The obtained pellet is resuspended in 0.32M saccharose (10 ml per g of original tissue). Aliquots of 0.05 ml of the hereby obtained synaptosome suspension are added to glass tubes containing 0.625 ml of a NaCl buffer (136 mM NaCl, 4 mM KCl, 0.35 mM CaCl2, 1.2 mM MgCl2, 20 mM Tris HCl, 12 mM glucose, pH 7.4) as well as 0.025 ml of different test substances in 48% ethanol. These tubes are pre-incubatedfor 30 minutes on ice and thereafter for 6 minutes at 37° C. ^45 Ca uptake is initiated by addition to above glass-tubes of 0.4 ml ^45 CACl2 (specific activity: 29-39 Ci/g; […]). […] The radioactivity on the filters are measured by liquid scintillation spectrometry. […]

On to `FC(F)(F)c1ccc2c(c1)ncn2-c1cccc(-c2ccsc2)c1` [1-[3-(3-thienyl)phenyl-5-trifluoromethyl]-benzimidazole], for which the IC50 – broadly, the concentration that inhibits the measured activity by half – was found to be 3.4 µM.
The same measure for `Nc1cccc(-c2cccc(-n3cnc4cc(C(F)(F)F)ccc43)c2)c1` [1-[3-(3-aminophenyl)-phenyl]-5-trifluoromethyl-benzimidazole]: 14 µM.
The same measure for `Fc1ccc2c(c1)ncn2-c1ccc(I)cc1` [1-(4-iodophenyl)-5-fluoro-benzimidazole]: 7 µM.
